What was measured:
[1] = target: T1, ENaC (Homo sapiens, UniProt P37088+P51168+P51170); test: Short circuit current in T84 cells expressing ENaC; assay type: cell-based; details: up to 30 μM
T1 construct: endogenous in cells; host or cells: T84 cells, ENaC induced with 2 mM sodium butyrate for 2 days
T1 sequence (P37088 1-669): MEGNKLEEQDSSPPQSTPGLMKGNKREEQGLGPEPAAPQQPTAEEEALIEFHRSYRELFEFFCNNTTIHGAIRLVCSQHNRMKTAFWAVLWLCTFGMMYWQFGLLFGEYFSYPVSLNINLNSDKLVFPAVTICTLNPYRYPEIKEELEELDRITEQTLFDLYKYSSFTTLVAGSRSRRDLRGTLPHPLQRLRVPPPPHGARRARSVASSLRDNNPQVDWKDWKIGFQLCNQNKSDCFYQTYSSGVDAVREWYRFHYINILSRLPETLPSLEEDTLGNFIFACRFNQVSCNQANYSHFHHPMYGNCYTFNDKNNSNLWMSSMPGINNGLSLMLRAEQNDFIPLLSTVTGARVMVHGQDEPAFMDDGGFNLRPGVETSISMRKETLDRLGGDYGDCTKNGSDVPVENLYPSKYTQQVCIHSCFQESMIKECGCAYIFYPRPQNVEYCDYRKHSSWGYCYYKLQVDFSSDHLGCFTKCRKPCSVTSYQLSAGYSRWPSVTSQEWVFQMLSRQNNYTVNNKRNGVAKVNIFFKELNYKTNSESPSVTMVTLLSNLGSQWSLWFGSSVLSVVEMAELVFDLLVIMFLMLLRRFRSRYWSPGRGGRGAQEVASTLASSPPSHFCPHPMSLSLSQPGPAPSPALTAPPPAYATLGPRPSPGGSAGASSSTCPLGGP
T1 sequence (P51168 1-640): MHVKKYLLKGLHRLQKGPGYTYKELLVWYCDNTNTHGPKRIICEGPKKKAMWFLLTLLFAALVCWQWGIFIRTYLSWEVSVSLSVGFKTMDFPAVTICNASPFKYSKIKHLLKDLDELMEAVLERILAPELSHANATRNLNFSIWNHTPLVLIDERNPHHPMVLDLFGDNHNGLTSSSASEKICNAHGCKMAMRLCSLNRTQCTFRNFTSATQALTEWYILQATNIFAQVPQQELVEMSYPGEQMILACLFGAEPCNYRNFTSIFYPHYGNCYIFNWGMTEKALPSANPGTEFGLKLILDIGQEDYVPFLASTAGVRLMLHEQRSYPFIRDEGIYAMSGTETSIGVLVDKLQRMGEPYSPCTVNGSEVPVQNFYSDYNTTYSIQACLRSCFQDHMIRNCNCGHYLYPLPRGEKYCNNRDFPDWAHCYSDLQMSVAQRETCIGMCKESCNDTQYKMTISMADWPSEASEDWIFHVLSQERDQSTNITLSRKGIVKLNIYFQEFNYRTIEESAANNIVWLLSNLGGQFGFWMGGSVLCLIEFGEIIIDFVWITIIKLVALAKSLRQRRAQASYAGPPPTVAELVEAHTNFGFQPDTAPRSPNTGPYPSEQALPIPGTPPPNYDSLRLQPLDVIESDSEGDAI
T1 sequence (P51170 1-649): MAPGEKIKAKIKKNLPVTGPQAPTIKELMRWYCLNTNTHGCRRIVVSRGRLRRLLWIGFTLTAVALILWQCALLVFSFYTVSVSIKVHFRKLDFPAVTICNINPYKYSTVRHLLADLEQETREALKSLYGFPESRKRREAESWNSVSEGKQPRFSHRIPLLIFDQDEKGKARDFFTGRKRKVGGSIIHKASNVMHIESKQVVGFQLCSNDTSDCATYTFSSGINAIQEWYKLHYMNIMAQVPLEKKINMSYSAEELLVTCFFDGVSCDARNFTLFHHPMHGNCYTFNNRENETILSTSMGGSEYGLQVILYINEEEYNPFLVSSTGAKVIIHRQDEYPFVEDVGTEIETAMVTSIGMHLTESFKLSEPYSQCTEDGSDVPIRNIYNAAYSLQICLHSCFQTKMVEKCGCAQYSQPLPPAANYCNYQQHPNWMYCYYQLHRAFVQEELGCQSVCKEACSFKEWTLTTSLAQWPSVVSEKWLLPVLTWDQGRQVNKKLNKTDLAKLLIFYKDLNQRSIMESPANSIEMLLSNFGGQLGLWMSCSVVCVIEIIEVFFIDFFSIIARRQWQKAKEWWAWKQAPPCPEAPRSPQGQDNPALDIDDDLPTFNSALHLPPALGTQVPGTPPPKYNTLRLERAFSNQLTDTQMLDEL
Protocol: (§1) Snapwell inserts containing ANO1, ANO2 or CFTR expressing FRT cells, ENaC expressing T-84 cells or the human primary airway epithelial cells were mounted in Ussing chambers (Physiologic Instruments, San Diego, CA). To induce transcriptional ENaC induction, the polarized T84 cells were incubated with 2 mM sodium butyrate for 2 days. To increase the functional expression of ANO1, the human airway epithelial cells were treated with IL-4 (10 ng/mL) for 2 days. For T-84 and the human primary airway epithelial cells, the apical and basolateral bath were filled with HCO3^—buffered solution containing (in mM): 120 NaCl, 5 KCl, 1 MgCl2, 1 CaCl2, 10 D-glucose, 2.5 HEPES, and 25 NaHCO3 (pH 7.4). For FRT cells, the basolateral bath was filled with the HCO3^—buffered solution and the apical bath was filled with a half-Cl^- solution. In the half-Cl^- solution 65 mM NaCl in the HCO3^—buffered solution was replaced by Na-gluconate. […] ATP was applied to the apical bath solution to induce intracellular calcium increase. […] Apical membrane currents were measured with an EVC4000 Multi-Channel V/I Clamp (World Precision Instruments, Sarasota, FL) and PowerLab 4/35 (AD Instruments, Castle Hill, Australia). Data were analyzed using Labchart Pro 7 (AD Instruments). The sampling rate was 4 Hz.
(§2) ANO1 was activated by either 10 μM Eact, an ANO1 activator, or 100 μM ATP.

[2] = target: T2, human wild-type CFTR (Homo sapiens, UniProt P13569); test: Apical membrane current in FRT cells expressing CFTR; assay type: cell-based; details: up to 30 μM, CFTR activated by 20 μM forskolin
T2 construct: expressed in transfected cells; host or cells: Fischer rat thyroid (FRT) cells
T2 sequence (P13569 whole entry): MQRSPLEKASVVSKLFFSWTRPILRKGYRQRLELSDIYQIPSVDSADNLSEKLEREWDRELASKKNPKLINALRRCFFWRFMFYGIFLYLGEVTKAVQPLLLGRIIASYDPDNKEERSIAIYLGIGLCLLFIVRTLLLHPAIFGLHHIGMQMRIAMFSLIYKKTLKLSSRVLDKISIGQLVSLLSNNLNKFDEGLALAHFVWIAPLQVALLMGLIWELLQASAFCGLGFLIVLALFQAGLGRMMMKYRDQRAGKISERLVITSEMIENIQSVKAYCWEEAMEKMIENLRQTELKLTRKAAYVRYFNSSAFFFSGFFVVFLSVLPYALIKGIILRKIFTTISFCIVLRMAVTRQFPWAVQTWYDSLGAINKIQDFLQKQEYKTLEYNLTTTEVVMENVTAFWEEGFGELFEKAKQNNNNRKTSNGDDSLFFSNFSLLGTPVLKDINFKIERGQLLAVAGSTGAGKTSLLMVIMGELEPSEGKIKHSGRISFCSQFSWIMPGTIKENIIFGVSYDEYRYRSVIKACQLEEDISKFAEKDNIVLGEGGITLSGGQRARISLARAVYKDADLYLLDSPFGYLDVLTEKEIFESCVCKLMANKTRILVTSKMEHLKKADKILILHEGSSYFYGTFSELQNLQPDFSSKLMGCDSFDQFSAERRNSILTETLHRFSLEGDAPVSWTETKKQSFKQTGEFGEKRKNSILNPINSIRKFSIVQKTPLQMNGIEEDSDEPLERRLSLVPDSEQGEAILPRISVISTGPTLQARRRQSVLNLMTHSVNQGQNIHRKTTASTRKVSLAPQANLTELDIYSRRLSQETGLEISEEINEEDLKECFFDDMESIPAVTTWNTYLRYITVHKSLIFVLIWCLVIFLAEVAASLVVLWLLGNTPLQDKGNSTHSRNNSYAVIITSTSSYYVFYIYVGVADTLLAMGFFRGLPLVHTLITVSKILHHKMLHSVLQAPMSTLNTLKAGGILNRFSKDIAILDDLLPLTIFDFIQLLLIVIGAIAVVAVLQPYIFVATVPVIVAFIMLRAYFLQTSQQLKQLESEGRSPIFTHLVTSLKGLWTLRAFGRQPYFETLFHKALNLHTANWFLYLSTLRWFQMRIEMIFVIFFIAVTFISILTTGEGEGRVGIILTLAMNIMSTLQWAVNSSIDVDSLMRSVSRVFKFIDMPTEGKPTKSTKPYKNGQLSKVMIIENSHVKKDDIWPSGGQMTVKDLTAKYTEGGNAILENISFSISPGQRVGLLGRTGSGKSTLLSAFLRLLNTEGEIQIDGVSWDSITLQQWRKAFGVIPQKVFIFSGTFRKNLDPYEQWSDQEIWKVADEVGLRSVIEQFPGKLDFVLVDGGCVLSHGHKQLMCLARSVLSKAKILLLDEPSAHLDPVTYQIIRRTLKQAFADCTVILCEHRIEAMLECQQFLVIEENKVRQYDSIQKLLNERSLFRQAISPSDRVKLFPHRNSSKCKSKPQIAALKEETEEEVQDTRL
Protocol: as §1, §2

COc1ccccc1C=NNC(=O)COc1ccc(Cl)cc1C [Ani9, 2-(4-chloro-2-methylphenoxy)-N-[(2-methoxyphenyl)methylideneamino]-acetamide]
effect on ENaC channel activity [1]: no effect
effect on CFTR channel activity [2]: no effect

— article PMC4878759 (PLoS ONE, 2016)
